Data: the NIST ThermoML archive (doi:10.1016/j.jct.2012.01.008)

Test: xn = mol fraction of the nth substance listed
Details: Liquid, Vibrating tube method

CCC[N+]1(C)CCCCC1.O=S(=O)([N-]S(=O)(=O)C(F)(F)F)C(F)(F)F + CC(=O)c1ccccc1
mass density [kg/m3]
Details	100 kPa	10000 kPa	15000 kPa	20000 kPa	25000 kPa	30000 kPa	35000 kPa	40000 kPa	45000 kPa	50000 kPa
298.15 K, x2 = 0.1024	1393.3	1399.9	1402.9	1406	1408.8	1411.6	1414.3	1417.1	1419.8	1422.4
298.15 K, x2 = 0.2007	1376	1382.5	1385.4	1388.5	1391.3	1394.1	1396.8	1399.5	1402.2	1404.8
298.15 K, x2 = 0.3001	1355.5	1361.8	1364.8	1367.9	1370.7	1373.5	1376.2	1379	1381.7	1384.3
298.15 K, x2 = 0.4001	1331.8	1338	1341	1344.1	1346.9	1349.7	1352.4	1355.1	1357.8	1360.4
298.15 K, x2 = 0.5008	1303.8	1309.9	1312.8	1315.8	1318.5	1321.3	1324	1326.6	1329.3	1331.8
298.15 K, x2 = 0.6001	1270.5	1276.6	1279.5	1282.5	1285.2	1287.9	1290.5	1293.2	1295.7	1298.2
298.15 K, x2 = 0.7003	1229.4	1235.5	1238.3	1241.2	1243.9	1246.5	1249.1	1251.7	1254.2	1256.7
298.15 K, x2 = 0.7999	1178	1184	1186.8	1189.7	1192.3	1194.9	1197.5	1200.1	1202.6	1205
298.15 K, x2 = 0.8998	1111.5	1117.3	1120	1122.7	1125.2	1127.8	1130.4	1133	1135.4	1137.8
318.15 K, x2 = 0.1024	1376.7	1383.4	1386.8	1389.8	1392.8	1395.8	1398.8	1401.6	1404.5	1407.1
318.15 K, x2 = 0.2007	1359	1365.7	1369.1	1372.1	1375.1	1378.1	1381.1	1383.9	1386.7	1389.3
318.15 K, x2 = 0.3001	1338.4	1345.1	1348.5	1351.5	1354.5	1357.5	1360.5	1363.3	1366.1	1368.7
318.15 K, x2 = 0.4001	1314.6	1321.3	1324.7	1327.7	1330.7	1333.7	1336.5	1339.3	1342.1	1344.8
318.15 K, x2 = 0.5008	1286.6	1293.1	1296.5	1299.5	1302.4	1305.4	1308.2	1310.9	1313.7	1316.3
318.15 K, x2 = 0.6001	1253.2	1259.8	1263.1	1266.1	1269	1271.9	1274.8	1277.4	1280.2	1282.8
318.15 K, x2 = 0.7003	1212	1218.5	1221.8	1224.7	1227.7	1230.6	1233.4	1236	1238.7	1241.3
318.15 K, x2 = 0.7999	1160.6	1167.1	1170.2	1173.1	1176	1178.8	1181.7	1184.2	1186.9	1189.5
318.15 K, x2 = 0.8998	1093.9	1100.3	1103.4	1106.3	1109.2	1112	1114.9	1117.4	1120.1	1122.6
348.15 K, x2 = 0.1024	1350.8	1357.9	1361.5	1365.1	1368.5	1371.7	1374.9	1377.9	1381	1383.8
348.15 K, x2 = 0.2007	1333	1340.3	1344	1347.5	1350.9	1354.1	1357.4	1360.4	1363.4	1366.2
348.15 K, x2 = 0.3001	1312.4	1319.7	1323.4	1327	1330.4	1333.7	1336.8	1339.9	1342.8	1345.6
348.15 K, x2 = 0.4001	1288.5	1295.8	1299.5	1303	1306.4	1309.6	1312.8	1315.8	1318.8	1321.6
348.15 K, x2 = 0.5008	1260.2	1267.6	1271.2	1274.6	1277.9	1281.2	1284.3	1287.3	1290.3	1293.1
348.15 K, x2 = 0.6001	1226.6	1234.1	1237.7	1241.1	1244.4	1247.7	1250.8	1253.8	1256.8	1259.6
348.15 K, x2 = 0.7003	1185.5	1193	1196.6	1199.9	1203.2	1206.5	1209.6	1212.6	1215.6	1218.4
348.15 K, x2 = 0.7999	1134.2	1141.7	1145.2	1148.6	1151.8	1155.1	1158.2	1161.2	1164.2	1167
348.15 K, x2 = 0.8998	1067.9	1075.4	1078.9	1082.1	1085.4	1088.6	1091.7	1094.7	1097.7	1100.4
